Measurements published in US20230165874A1, “ANTICOAGULANT COMPOUNDS AND METHODS AND DEVICES FOR THEIR PULMONARY USE” (priority 2020, published 2023).
Values after ≈ are worked out from the molar mass of the structure shown. Counter-ions that a name gives are not always drawn.

What was measured:
[1] = in vivo; parameters: species or system Sprague-Dawley rats; conditions: male, Sprague-Dawley, rat; for Tmax: inhaled or intranasal
Protocol: At their assigned time-point, rats were anesthetized and subjected to exsanguination via an abdominal vessel and gross necropsy. Whole blood (two ˜1.5 ml aliquots, K2EDTA) was collected. The whole blood was stored frozen at −60° C. or lower until shipped overnight with dry ice for further evaluation.
Whole blood (two ˜100 μL aliquots, K2EDTA) was collected from the catheter of conscious rats for systemic pharmacokinetics (PK) at the time-points. Whole blood samples were stored at −60° C. or lower until shipped overnight on dry ice for further evaluation.

[2] = parameters: species or system Sprague-Dawley rats; conditions: male, Sprague-Dawley, rat, in vivo
Protocol: The lungs were removed and divided into left and right lung. Each half of the lung was weighed and placed in separate vials (for Pharmacokinetics analysis), snap frozen in liquid nitrogen and stored frozen at −60° C. or lower until shipped overnight on dry ice for further evaluation.
Each half of the lung was weighed and placed in separate vials (for Pharmacokinetics analysis), snap frozen in liquid nitrogen and stored frozen at −60° C. or lower until shipped overnight on dry ice to the sponsor for further evaluation.

[3] = Whole blood PK of drug eluting stents; conditions: for concentration at 180 min: 180 min. (3 hr); for concentration at 60 min: 60 min. (1 hr); for concentration at 120 min: 120 min. (2 hr)
[4] = test system: porcine coronary artery; assay: Histopathology scores (fibrin, injury, inflammation) of stented porcine coronary arteries; conditions: for inhibiting fibrin formation compared to bare metal control stents: at 7 days, released from stents
[5] = Coated balloon tissue drug concentration in vivo (LCMS); parameters: species or system porcine; conditions: pig, 300 μg
Text: The balloon (e.g., the balloon of a balloon-catheter of a stent-delivery system) was advanced to a site to be treated (e.g., an occluded or weakened section of a blood vessel to be opened up or supported by a stent) in the body of a subject and inflated to a desired inflation diameter. Before, during, and/or after inflation of the balloon, the balloon released the therapeutic composition to, into, or at the treatment site, or to, into, or at an area adjacent thereto, by any suitable mechanism (e.g., concentration gradient, diffusion, pressure, or mechanical force, or a combination thereof). […] The tissue concentration is shown in ng/mg tissue. The coated balloons were evaluated for drug delivery efficiency in an animal study. Drug transfer of the coated balloons into arterial segments were evaluated using harvested pig arteries. The arterial wall was separated after animal study. The arterial walls were then stored in an individual labeled vial. All samples were kept on dry ice until stored in the −80° C. freezer. All samples were then frozen to […] prior to being analyzed.

[6] = test system: porcine coronary artery; assay: Quantitative coronary angiography (late lumen loss, diameter stenosis) after stent implantation; conditions: at 7 days, released from stents
[7] = in vivo; conditions: pig, whole blood
[8] = test system: Calcium-reconstituted sheep blood; assay: Activated clotting time (ACT), Hemochron Response; type: biochemical; conditions: individual drug at 0.6 ng/mg
Protocol: The activated clotting time (ACT) evaluation of anticoagulants was performed in Calcium-reconstituted sheep blood and recorded employing the Hemochron® Response device. […] A target amount of drug solution was then added into the test tube. […] The tube was gently shaken before being inserted into the Hemochron Response detector. The ACT read out was recorded and reported. The ACT of the control blood in the absence of any drug as first determined to establish a baseline. Then ACT was determined in the presence of different concentrations of the drug as a single component. Selected drug combinations, were then tested to evaluate for potential synergy in action between the two drugs.

[9] = Solubility in water / aqueous buffer / Captisol
[10] = physchem
[11] = pig, whole blood, other: drug eluting stent implanted in coronary artery, Whole blood concentration, SS16 stents, 1 H group
[12] = pig, whole blood, other: drug eluting stents implanted in coronary arteries, Whole blood concentration, SS16 stents, 1 D group
[13] = pig, whole blood, other: drug eluting stents implanted in coronary arteries, Whole blood concentration, SS17 stents, 1 D group
[14] = pig, whole blood, other: drug eluting stents implanted in coronary arteries, Whole blood concentration, SS17 stents, 1 H group

Question: Which results are given for CN1CCCC(n2nc(Cc3ccc(Cl)cc3)c3ccccc3c2=O)CC1 (centres unmarked) [Azelastine, Azelastine hydrochloride]?
Answer: time the systemic drug in whole blood lasted [1]: up to 2 hours; time the drug content in lungs tissue lasted [2]: more than 5 hours

Question: With O=C(NC[C@H]1CN(c2ccc(N3CCOCC3=O)cc2)C(=O)O1)c1ccc(Cl)s1 [Rivaroxaban] as the compound, how does the Whole blood concentration ([3]; SS16 stents, 1 D group, 24 hr (Day 1)) read?
Answer: BQL

Question: What about the Whole blood concentration ([3]; SS16 stents, 1 D group, Pre-implant) of the same compound?
Answer: BQL

Question: What about the Whole blood concentration ([3]; SS16 stents, 1 H group, Pre-implant) of the same compound?
Answer: BQL

Question: And the Whole blood concentration ([3]; SS16 stents, 7 D group, Day 7)?
Answer: BQL

Question: And the Whole blood concentration ([3]; SS16 stents, 7 D group, Pre-implant)?
Answer: BQL

Question: And the Whole blood concentration ([3]; SS16 stents, 28 D group, Day 28)?
Answer: BQL

Question: And the Whole blood concentration ([3]; SS16 stents, 28 D group, Pre-implant)?
Answer: BQL

Question: And the Whole blood concentration ([3]; SS17 stents, 1 D group, Pre-implant)?
Answer: BQL

Question: And the Whole blood concentration ([3]; SS17 stents, 1 H group, Pre-implant)?
Answer: BQL

Question: What about the Whole blood concentration ([3]; SS17 stents, 7 D group, Day 7) of the same compound?
Answer: BQL

Question: What about the Whole blood concentration ([3]; SS17 stents, 7 D group, Pre-implant) of the same compound?
Answer: BQL

Question: What about the Whole blood concentration ([3]; SS17 stents, 28 D group, Day 28) of the same compound?
Answer: BQL

Question: What about the Whole blood concentration ([3]; SS17 stents, 28 D group, Pre-implant) of the same compound?
Answer: BQL

Question: What about the “systemic blood concentration versus systemic therapeutic concentrations (Cmax, Cmean, Ctrough)” value ([3]; drug eluting stents SS15, SS16, SS17) of the same compound?
Answer: below

Question: And the concentration at 30 min ([3]; pig, whole blood, other: drug eluting stent implanted in coronary artery, Whole blood concentration, SS16 stents, 1 D group)?
Answer: 3.76 ng/mL

Question: And the concentration at 30 min [3, 11]?
Answer: 3.34 ng/mL

Question: And the concentration at 45 min [3, 11]?
Answer: 3.68 ng/mL

Question: What about the concentration at 180 min ([3]; pig, whole blood, other: drug eluting stent implanted in coronary artery, Whole blood concentration, SS17 stents, 1 D group) of the same compound?
Answer: 8.39 ng/mL

Question: And the concentration at 4 h ([3]; pig, whole blood, other: drug eluting stent implanted in coronary artery, Whole blood concentration, SS17 stents, 1 D group, 4 hr)?
Answer: 3.74 ng/mL

Question: What about the concentration at 5 h ([3]; pig, whole blood, other: drug eluting stent implanted in coronary artery, Whole blood concentration, SS17 stents, 1 D group, 5 hr) of the same compound?
Answer: 3.9 ng/mL

Question: What about the concentration at 6 h ([3]; pig, whole blood, other: drug eluting stent implanted in coronary artery, Whole blood concentration, SS17 stents, 1 D group, 6 hr) of the same compound?
Answer: 3.1 ng/mL

Question: And the concentration at 24 h ([3]; pig, whole blood, other: drug eluting stent implanted in coronary artery, Whole blood concentration, SS17 stents, 1 D group, 24 hr (Day 1))?
Answer: 0.16 ng/mL

Question: And the concentration at 45 min [3, 12]?
Answer: 3.47 ng/mL

Question: And the concentration at 60 min [3, 12]?
Answer: 2.61 ng/mL

Question: And the concentration at 90 min [3, 12]?
Answer: 2.43 ng/mL

Question: And the concentration at 120 min [3, 12]?
Answer: 2.3 ng/mL

Question: What about the concentration at 180 min [3, 12] of the same compound?
Answer: 1.95 ng/mL

Question: And the concentration at 4 hr ([3]; pig, whole blood, other: drug eluting stents implanted in coronary arteries, Whole blood concentration, SS16 stents, 1 D group, 4 hr)?
Answer: 1.23 ng/mL

Question: And the concentration at 5 hr ([3]; pig, whole blood, other: drug eluting stents implanted in coronary arteries, Whole blood concentration, SS16 stents, 1 D group, 5 hr)?
Answer: 1.11 ng/mL

Question: What about the concentration at 6 hr ([3]; pig, whole blood, other: drug eluting stents implanted in coronary arteries, Whole blood concentration, SS16 stents, 1 D group, 6 hr) of the same compound?
Answer: 1.03 ng/mL

Question: And the concentration at 60 min ([3]; pig, whole blood, other: drug eluting stents implanted in coronary arteries, Whole blood concentration, SS16 stents, 1 H group)?
Answer: 4.08 ng/mL

Question: And the concentration at 15 min [3, 13]?
Answer: 24 ng/mL

Question: And the concentration at 30 min [3, 13]?
Answer: 20.1 ng/mL

Question: What about the concentration at 45 min [3, 13] of the same compound?
Answer: 19.5 ng/mL

Question: What about the concentration at 60 min [3, 13] of the same compound?
Answer: 18.5 ng/mL

Question: And the concentration at 90 min [3, 13]?
Answer: 15 ng/mL

Question: What about the concentration at 120 min [3, 13] of the same compound?
Answer: 11.6 ng/mL

Question: And the concentration at 150 min ([3]; pig, whole blood, other: drug eluting stents implanted in coronary arteries, Whole blood concentration, SS17 stents, 1 D group, 150 min.)?
Answer: 11.3 ng/mL

Question: And the concentration at 15 min [3, 14]?
Answer: 10.8 ng/mL

Question: And the concentration at 30 min [3, 14]?
Answer: 8.44 ng/mL

Question: What about the concentration at 45 min [3, 14] of the same compound?
Answer: 7.82 ng/mL

Question: And the concentration at 60 min [3, 14]?
Answer: 7.54 ng/mL

Question: What about the “inhibiting fibrin formation compared to control” value ([4]; at 7 days and/or at 28 days, faster release formulation) of the same compound?
Answer: more effective

Question: And the “inhibiting fibrin formation compared to bare metal control stents” value [4]?
Answer: more effective

Question: And the concentration at 15 min ([5]; coronary artery wall)?
Answer: 1230 ± 370 ng/g

Question: What about the concentration at 15 min ([5]; superficial femoral artery wall) of the same compound?
Answer: 40600 ± 64700 ng/g

Question: And the “inhibiting smooth muscle cell proliferation (LLL) compared to bare metal control stents” value [6]?
Answer: not more effective

Question: And the concentration at 15 min ([7]; other: drug eluting stent implanted in coronary artery)?
Answer: 3.32 ng/mL

Question: And the concentration at 150 min ([7]; other: drug eluting stents implanted in coronary arteries)?
Answer: 2.08 ng/mL

Question: For COc1ccc(-n2nc(C(N)=O)c3c2C(=O)N(c2ccc(N4CCCCC4=O)cc2)CC3)cc1 [Apixaban], which Tmax [1] is on record?
Answer: 5 to 10 min

Question: And the “time the drug content in lung tissue lasted” value [2]?
Answer: up to 3.5 hours

Question: What about the “time the drug content in lungs tissue lasted” value [2] of the same compound?
Answer: up to 1 hours

Question: And the ACT [8]?
Answer: 522

Question: And the solubility ([9]; aqueous buffer, solubility in aqueous buffers, drug alone)?
Answer: ~28 µg/mL (≈ 60.9 µM)

Question: What about the solubility ([9]; water, solubility in water) of the same compound?
Answer: ~28 µg/mL (≈ 60.9 µM)

Question: With Dalteparin as the compound, how does the “inhibiting fibrin formation compared to bare metal control stents” value [4] read?
Answer: not more effective

Question: And the “inhibiting smooth muscle cell proliferation (LLL) compared to bare metal control stents” value [6]?
Answer: not more effective

Question: Which results are given for CC1CNc2c(cccc2S(=O)(=O)N[C@@H](CCCNC(=N)N)C(=O)N2CC[C@@H](C)C[C@@H]2C(=O)O)C1 (some centres unmarked) [Argatroban]?
Answer: solubility ([10]; aqueous buffer, solubility in aqueous buffers): ~3000 µg/mL (≈ 5900 µM); solubility ([10]; water, solubility in water): ~3000 µg/mL (≈ 5900 µM); Tmax [1]: ~60 min; time the drug content in lung tissue lasted [2]: more than 6 hours; time the drug content in lungs tissue lasted [2]: more than 5 hours; inhibiting fibrin formation compared to bare metal control stents [4]: not more effective; ACT [8]: 301

Question: For CCN(CCO)CCCC(C)Nc1ccnc2cc(Cl)ccc12 (centres unmarked) [Hydroxychloroquine, Hydroxychloroquine sulfate], which “time the systemic drug in whole blood lasted” value [1] is on record?
Answer: more than 5 hours

Question: And the “time the drug content in lungs tissue lasted” value [2]?
Answer: more than 5 hours
